Data reported in ChEMBL document CHEMBL1138848, “Tetrahydrobiopterin binding to aromatic amino acid hydroxylases. Ligand recognition and specificity” (J Med Chem, 2004).

Assays:
[1] = target: T1, Phenylalanine-4-hydroxylase (Homo sapiens, UniProt P00439); assay: Inhibitory concentration against human phenylalanine hydroxylase
T1 sequence (P00439 whole entry): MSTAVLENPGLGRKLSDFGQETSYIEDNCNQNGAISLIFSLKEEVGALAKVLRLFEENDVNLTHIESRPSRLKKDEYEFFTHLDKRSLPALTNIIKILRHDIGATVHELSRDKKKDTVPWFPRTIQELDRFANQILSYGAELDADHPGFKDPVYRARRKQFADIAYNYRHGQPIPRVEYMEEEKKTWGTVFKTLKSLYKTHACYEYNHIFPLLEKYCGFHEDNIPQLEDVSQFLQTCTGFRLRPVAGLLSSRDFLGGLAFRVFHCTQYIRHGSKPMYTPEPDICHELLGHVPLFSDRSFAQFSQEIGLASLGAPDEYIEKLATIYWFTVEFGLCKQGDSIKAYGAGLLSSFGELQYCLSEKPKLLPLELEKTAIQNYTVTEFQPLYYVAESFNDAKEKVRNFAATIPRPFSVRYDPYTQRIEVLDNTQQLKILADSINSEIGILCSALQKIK

[2] = target: T1, Phenylalanine-4-hydroxylase; assay: Binding affinity for human phenylalanine hydroxylase

IC50 [1]: 1 µM
Ki [2]: 7 µM
Structure (SMILES): CC(O)C(O)C1CNc2c(nc(N)[nH]c2=O)N1 (configuration not stated)
